{"source": "paper PMC3685188", "about": "(Chemical Research in Toxicology, 2013)", "key": {"kinases and phosphatases": {"test_system": "kinases and phosphatases", "experiment": "kinase and phosphatase assays taken together", "assay_type": "biochemical"}, "adenosine receptors": {"test_system": "adenosine receptors", "assay_type": "binding"}, "mERa": {"biological_target": "mERa (Mus musculus, UniProt P19785)", "sequence (P19785 whole entry)": "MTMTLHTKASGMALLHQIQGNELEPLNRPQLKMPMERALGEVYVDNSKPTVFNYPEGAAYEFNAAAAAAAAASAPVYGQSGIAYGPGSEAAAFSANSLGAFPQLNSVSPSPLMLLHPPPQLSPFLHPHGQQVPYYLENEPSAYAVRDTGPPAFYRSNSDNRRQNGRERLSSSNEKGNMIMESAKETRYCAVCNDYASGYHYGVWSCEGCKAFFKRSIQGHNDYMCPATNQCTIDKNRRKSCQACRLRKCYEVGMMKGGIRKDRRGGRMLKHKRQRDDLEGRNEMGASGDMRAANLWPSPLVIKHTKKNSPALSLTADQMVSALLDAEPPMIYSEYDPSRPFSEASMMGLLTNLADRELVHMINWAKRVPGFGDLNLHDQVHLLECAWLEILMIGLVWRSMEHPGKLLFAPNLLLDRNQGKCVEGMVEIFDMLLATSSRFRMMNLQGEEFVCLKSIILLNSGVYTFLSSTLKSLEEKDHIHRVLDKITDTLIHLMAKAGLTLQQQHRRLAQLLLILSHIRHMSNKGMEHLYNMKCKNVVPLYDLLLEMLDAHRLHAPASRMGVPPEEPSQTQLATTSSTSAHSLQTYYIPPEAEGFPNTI", "assay_type": "binding", "conditions": "LCT ∼[…] for non-CYPs; value = assay target as listed"}, "GPCRs": {"test_system": "GPCRs", "experiment": "GPCR ligand-binding assays taken together"}, "gLTB4": {"biological_target": "gLTB4", "experiment": "GPCR_gLTB4 leukotriene B4 binding", "set-up": "species or system guinea pig"}, "hCYP2C19": {"biological_target": "hCYP2C19 (Homo sapiens, UniProt P33261)", "sequence (P33261 whole entry)": "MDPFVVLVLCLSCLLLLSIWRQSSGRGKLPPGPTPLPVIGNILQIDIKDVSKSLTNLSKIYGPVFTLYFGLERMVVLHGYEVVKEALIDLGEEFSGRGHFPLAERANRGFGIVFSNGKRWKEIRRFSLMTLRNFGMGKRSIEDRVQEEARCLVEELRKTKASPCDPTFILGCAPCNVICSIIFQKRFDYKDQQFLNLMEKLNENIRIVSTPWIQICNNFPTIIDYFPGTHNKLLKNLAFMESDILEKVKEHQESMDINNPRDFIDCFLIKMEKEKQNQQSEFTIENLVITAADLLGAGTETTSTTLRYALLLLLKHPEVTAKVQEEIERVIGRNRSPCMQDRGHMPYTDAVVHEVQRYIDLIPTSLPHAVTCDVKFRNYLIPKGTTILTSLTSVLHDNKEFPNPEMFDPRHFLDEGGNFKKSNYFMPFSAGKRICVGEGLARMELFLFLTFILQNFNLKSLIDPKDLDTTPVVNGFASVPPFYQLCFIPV"}, "PTGS1/COX1": {"biological_target": "PTGS1/COX1 (Ovis aries, UniProt P05979)", "sequence (P05979 25-600)": "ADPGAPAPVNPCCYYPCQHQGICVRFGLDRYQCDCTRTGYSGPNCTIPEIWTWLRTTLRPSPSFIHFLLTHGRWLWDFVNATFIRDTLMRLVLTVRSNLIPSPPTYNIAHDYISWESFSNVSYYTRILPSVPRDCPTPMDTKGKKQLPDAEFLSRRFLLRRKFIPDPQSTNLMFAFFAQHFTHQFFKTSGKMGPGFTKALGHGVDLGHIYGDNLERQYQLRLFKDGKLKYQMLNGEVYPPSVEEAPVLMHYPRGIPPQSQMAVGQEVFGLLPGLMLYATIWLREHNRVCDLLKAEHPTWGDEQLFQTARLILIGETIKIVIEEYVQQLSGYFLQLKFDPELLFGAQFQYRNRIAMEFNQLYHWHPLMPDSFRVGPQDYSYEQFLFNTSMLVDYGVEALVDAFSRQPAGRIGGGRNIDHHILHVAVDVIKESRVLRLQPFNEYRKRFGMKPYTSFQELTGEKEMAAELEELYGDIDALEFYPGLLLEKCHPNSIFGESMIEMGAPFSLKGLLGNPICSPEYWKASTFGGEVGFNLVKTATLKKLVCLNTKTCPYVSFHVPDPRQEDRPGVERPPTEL", "experiment": "PTGS1/COX1 enzymatic inhibition", "assay_type": "biochemical"}, "PTGS2/COX2": {"biological_target": "PTGS2/COX2 (Ovis aries, UniProt P79208)", "sequence (P79208 17-603)": "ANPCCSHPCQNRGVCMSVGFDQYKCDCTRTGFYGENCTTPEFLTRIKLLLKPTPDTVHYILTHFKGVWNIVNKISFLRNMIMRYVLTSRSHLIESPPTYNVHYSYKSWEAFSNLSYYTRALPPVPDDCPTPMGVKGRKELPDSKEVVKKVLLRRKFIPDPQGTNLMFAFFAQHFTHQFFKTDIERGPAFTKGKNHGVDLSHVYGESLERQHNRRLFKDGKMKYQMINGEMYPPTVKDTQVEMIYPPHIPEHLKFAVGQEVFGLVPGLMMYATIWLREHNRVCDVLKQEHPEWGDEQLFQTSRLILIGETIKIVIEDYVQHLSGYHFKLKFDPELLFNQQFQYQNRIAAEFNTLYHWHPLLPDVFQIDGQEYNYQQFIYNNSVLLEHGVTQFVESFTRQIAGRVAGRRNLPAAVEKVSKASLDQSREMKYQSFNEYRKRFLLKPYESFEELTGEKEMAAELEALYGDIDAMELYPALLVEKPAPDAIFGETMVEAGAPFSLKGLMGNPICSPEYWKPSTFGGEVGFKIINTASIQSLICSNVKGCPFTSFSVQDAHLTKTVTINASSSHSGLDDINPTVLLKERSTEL", "experiment": "PTGS2/COX2 enzymatic inhibition", "assay_type": "biochemical"}, "hPXR": {"biological_target": "hPXR (Homo sapiens, UniProt O75469)", "sequence (O75469 whole entry)": "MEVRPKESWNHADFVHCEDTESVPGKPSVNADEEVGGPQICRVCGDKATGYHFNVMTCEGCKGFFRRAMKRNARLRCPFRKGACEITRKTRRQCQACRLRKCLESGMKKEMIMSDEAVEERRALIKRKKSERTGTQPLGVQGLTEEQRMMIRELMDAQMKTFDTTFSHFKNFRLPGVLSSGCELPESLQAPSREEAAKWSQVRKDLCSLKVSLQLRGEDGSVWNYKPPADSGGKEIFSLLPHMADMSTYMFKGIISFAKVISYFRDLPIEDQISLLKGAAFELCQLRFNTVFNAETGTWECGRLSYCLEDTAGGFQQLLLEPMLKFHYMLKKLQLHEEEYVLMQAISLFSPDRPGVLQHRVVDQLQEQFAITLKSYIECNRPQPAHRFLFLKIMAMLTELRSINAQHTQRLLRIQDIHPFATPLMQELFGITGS"}, "caspases": {"test_system": "caspases", "experiment": "caspase assays taken together", "assay_type": "biochemical"}, "MMPs": {"test_system": "MMPs", "experiment": "MMP assays taken together", "assay_type": "biochemical"}, "rPBR": {"biological_target": "rPBR (Rattus norvegicus, UniProt P16257)", "sequence (P16257 whole entry)": "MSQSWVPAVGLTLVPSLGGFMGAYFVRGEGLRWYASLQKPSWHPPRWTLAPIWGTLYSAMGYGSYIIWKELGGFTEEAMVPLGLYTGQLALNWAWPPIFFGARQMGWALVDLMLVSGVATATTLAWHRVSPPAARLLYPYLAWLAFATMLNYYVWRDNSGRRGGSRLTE", "experiment": "MP_rPBR translocator protein", "assay_type": "binding", "conditions": "LCT ∼[…] for non-CYPs; value = assay target as listed"}, "hCYP2C9": {"biological_target": "hCYP2C9 (Homo sapiens, UniProt P11712)", "sequence (P11712 whole entry)": "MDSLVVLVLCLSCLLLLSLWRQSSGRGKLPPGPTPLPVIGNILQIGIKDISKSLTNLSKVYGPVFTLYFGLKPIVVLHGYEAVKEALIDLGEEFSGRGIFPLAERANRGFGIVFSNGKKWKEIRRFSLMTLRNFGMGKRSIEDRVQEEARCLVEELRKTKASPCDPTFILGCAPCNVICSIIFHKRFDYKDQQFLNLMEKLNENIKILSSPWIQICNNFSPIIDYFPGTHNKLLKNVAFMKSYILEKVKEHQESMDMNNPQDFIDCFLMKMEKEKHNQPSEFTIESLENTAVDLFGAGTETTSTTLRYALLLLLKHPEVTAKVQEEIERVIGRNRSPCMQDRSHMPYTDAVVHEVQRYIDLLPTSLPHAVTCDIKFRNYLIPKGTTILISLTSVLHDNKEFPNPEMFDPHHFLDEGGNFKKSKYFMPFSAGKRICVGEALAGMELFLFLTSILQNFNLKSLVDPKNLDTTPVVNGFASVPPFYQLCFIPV"}, "hMMP2": {"biological_target": "hMMP2 (Homo sapiens, UniProt P08253)", "sequence (P08253 110-660)": "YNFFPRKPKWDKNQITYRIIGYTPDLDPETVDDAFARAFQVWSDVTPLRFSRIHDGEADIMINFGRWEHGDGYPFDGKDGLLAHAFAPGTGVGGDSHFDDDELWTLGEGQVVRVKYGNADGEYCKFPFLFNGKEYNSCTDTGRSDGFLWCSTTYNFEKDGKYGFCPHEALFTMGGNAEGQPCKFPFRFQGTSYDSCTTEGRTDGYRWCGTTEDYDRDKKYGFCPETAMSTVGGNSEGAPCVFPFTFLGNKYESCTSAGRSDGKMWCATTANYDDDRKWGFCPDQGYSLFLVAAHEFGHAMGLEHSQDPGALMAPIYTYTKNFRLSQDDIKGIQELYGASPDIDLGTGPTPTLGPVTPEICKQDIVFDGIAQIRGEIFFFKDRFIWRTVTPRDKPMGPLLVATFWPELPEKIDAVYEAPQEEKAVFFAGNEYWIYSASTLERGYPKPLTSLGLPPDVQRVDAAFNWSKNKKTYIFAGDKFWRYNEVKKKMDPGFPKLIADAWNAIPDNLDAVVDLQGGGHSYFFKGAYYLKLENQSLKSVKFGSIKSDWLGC", "experiment": "ENZ_hMMP2 enzymatic inhibition", "assay_type": "biochemical"}, "hMMP9": {"biological_target": "hMMP9 (Homo sapiens, UniProt P14780)", "sequence (P14780 94-707)": "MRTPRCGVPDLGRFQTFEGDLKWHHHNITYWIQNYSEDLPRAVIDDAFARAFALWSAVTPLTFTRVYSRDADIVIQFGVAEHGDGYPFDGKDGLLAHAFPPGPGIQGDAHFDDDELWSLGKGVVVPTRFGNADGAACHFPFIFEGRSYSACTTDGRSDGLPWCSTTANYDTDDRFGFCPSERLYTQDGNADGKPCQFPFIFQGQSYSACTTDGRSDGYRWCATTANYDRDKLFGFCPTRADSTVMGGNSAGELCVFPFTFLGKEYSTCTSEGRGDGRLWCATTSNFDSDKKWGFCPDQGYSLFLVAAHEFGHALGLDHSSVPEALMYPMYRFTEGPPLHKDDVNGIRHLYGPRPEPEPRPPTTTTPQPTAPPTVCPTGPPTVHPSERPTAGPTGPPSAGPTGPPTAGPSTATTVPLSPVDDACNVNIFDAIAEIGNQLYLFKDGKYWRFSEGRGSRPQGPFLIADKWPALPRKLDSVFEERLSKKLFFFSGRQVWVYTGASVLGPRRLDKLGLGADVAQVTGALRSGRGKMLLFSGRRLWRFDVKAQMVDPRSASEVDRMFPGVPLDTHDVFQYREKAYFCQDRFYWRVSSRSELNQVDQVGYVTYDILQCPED", "experiment": "ENZ_hMMP9 enzymatic inhibition", "assay_type": "biochemical"}, "MMP3": {"biological_target": "MMP3 (Homo sapiens, UniProt P08254)", "experiment": "hMMP3 enzymatic inhibition", "assay_type": "biochemical"}, "MMP1": {"biological_target": "MMP1 (Homo sapiens, UniProt P03956)", "experiment": "hMMP1 enzymatic inhibition", "assay_type": "biochemical"}, "hMMP13": {"biological_target": "hMMP13 (Homo sapiens, UniProt P45452)", "experiment": "ENZ_hMMP13 enzymatic inhibition", "assay_type": "biochemical"}, "hAdo1": {"biological_target": "hAdo1 (Homo sapiens, UniProt P30542)", "sequence (P30542 whole entry)": "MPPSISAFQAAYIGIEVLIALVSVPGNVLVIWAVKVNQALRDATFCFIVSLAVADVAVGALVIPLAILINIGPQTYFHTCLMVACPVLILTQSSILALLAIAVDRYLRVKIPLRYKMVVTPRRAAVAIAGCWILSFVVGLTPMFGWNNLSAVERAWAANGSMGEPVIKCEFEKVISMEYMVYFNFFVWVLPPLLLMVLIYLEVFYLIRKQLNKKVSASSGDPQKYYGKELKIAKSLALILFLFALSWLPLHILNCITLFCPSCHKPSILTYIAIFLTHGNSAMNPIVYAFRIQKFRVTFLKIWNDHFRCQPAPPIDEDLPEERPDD", "assay_type": "binding"}, "[1]": {"test_system": "nonselective bAdo receptor", "experiment": "nonselective bAdo receptor binding", "set-up": "species or system bovine"}, "[2]": {"conditions": "LCT ∼[…] for non-CYPs, value = assay target as listed"}}, "note": "“Also recorded” adds a separate entry of the source. Where two headings read alike, the source gives them in different places.", "data": [{"compound": "metiram", "values": [{"measurement": "effect on kinase and phosphatase assays, in words", "setting": "kinases and phosphatases", "result": "affected multiple kinase and phosphatase assays"}]}, {"compound": "Nc1nc(Cl)nc2c1ncn2[C@H]1C[C@H](O)[C@@H](CO)O1", "note": "[cladribine]", "values": [{"measurement": "effect on the adenosine receptor binding assays, in words", "setting": "adenosine receptors", "result": "inhibited; also recorded: relatively selective effect"}]}, {"compound": "CCC(C)(c1ccc(O)cc1)c1ccc(O)cc1", "note": "[bisphenol B]", "values": [{"measurement": "AC50 at the lowest concentration tested (LCT)", "setting": "mERa", "result": "NR_mERa"}]}, {"compound": "COC(=O)c1cccc(C)c1S(=O)(=O)NC(=O)Nc1nc(OCC(F)(F)F)nc(N(C)C)n1", "note": "[triflusulfuron-methyl]", "values": [{"measurement": "effect on the adenosine receptor binding assays, in words", "setting": "adenosine receptors", "result": "inhibited"}]}, {"compound": "tributyltin", "values": [{"measurement": "effect on GPCR ligand-binding activities, in words", "setting": "GPCRs", "result": "broadly disrupted"}]}, {"compound": "O=C(O)C1(c2ccc3c(c2)OCC(Cc2ccc(-c4ccccc4)cc2)C3O)CCCC1", "note": "(centres unmarked) [CP-105696 pharma]", "values": [{"measurement": "AC50 at the lowest concentration tested (LCT)", "setting": "gLTB4", "result": "GPCR_gLTB4"}]}, {"compound": "CO[C@H]1/C=C/O[C@@]2(C)Oc3c(C)c(O)c4c(O)c(c(/C=N/N5CCN(C)CC5)c(O)c4c3C2=O)NC(=O)/C(C)=C\\C=C\\[C@H](C)[C@H](O)[C@@H](C)[C@@H](O)[C@@H](C)[C@H](OC(C)=O)[C@@H]1C", "note": "[rifampicin]", "values": [{"measurement": "effect on the assay, in words", "setting": "hCYP2C19", "result": "inhibited"}, {"measurement": "effect on the assay, in words", "setting": "PTGS1/COX1", "result": "inhibited"}, {"measurement": "effect on the assay, in words", "setting": "PTGS2/COX2", "result": "inhibited"}]}, {"compound": "CSc1nc(NC(C)C)nc(NC(C)C)n1", "note": "[prometryn]", "values": [{"measurement": "effect on the adenosine receptor binding assays, in words", "setting": "adenosine receptors", "result": "inhibited; also recorded: relatively selective effect"}]}, {"compound": "phenylmercuric acetate", "values": [{"measurement": "effect on GPCR ligand-binding activities, in words", "setting": "GPCRs", "result": "broadly disrupted"}]}, {"compound": "CCOP(=O)(NC(C)C)Oc1ccc(SC)c(C)c1", "note": "(centres unmarked) [fenamiphos]", "values": [{"measurement": "AC50 at the lowest concentration tested (LCT)", "setting": "hPXR; [2]", "result": "NR_hPXR"}]}, {"compound": "CCN(CC)C(=O)C(C)Oc1cccc2ccccc12", "note": "(centres unmarked) [napropamide]", "values": [{"measurement": "AC50 at the lowest concentration tested (LCT)", "setting": "hPXR; [2]", "result": "NR_hPXR"}]}, {"compound": "COC(=O)N(OC)c1ccccc1COc1ccn(-c2ccc(Cl)cc2)n1", "note": "[pyraclostrobin]", "values": [{"measurement": "AC50 at the lowest concentration tested (LCT)", "setting": "hPXR; [2]", "result": "NR_hPXR"}]}, {"compound": "tannic acid", "values": [{"measurement": "effect on the assay, in words", "setting": "PTGS1/COX1", "result": "also inhibited"}, {"measurement": "effect on the caspase assays, in words", "setting": "caspases", "result": "also inhibited"}, {"measurement": "effect on the assay, in words", "setting": "PTGS2/COX2", "result": "also inhibited"}, {"measurement": "effect on the MMP assays, in words", "setting": "MMPs", "result": "also inhibited"}]}, {"compound": "CCC(C)(NC(=O)c1cc(Cl)c(C)c(Cl)c1)C(=O)CCl", "note": "(centres unmarked) [zoxamide]", "values": [{"measurement": "AC50 at the lowest concentration tested (LCT)", "setting": "rPBR", "result": "MP_rPBR"}]}, {"compound": "COCc1cnc(C2=NC(C)(C(C)C)C(=O)N2)c(C(=O)O)c1", "note": "(centres unmarked) [imazamox]", "values": [{"measurement": "AC50 at the lowest concentration tested (LCT)", "setting": "hPXR; [2]", "result": "NR_hPXR"}]}, {"compound": "CC(C)(C)c1cc(O)ccc1O", "note": "[tert-butylhydroquinone]", "values": [{"measurement": "effect on the assay, in words", "setting": "hCYP2C19", "result": "inhibited"}, {"measurement": "effect on the assay, in words", "setting": "PTGS1/COX1", "result": "inhibited"}, {"measurement": "effect on the assay, in words", "setting": "PTGS2/COX2", "result": "inhibited"}, {"measurement": "effect on the assay, in words", "setting": "hCYP2C9", "result": "inhibited"}]}, {"compound": "CCNc1nc(Cl)nc(NC(C)(C)C#N)n1", "note": "[cyanazine]", "values": [{"measurement": "effect on the adenosine receptor binding assays, in words", "setting": "adenosine receptors", "result": "inhibited; also recorded: relatively selective effect"}]}, {"compound": "O=C(NO)C1(NS(=O)(=O)c2ccc(Oc3ccc(F)cc3)cc2)CCOCC1", "note": "[CP-544439 pharma, 4-[4-(4-fluorophenoxy)-benzenesulfonylamino]tetrahydropyran-4-carboxylic acid hydroxyamide]", "values": [{"measurement": "effect on the assay, in words", "setting": "hMMP2", "result": "inhibited"}, {"measurement": "effect on the assay, in words", "setting": "hMMP9", "result": "inhibited"}, {"measurement": "AC50 at the lowest concentration tested (LCT)", "setting": "hMMP9; [2]", "result": "ENZ_hMMP13/2/9"}, {"measurement": "effect on the assay, in words", "setting": "MMP3", "result": "inhibited"}, {"measurement": "effect on the assay, in words", "setting": "MMP1", "result": "inhibited"}, {"measurement": "AC50 at the lowest concentration tested (LCT)", "setting": "hMMP13", "result": "ENZ_hMMP13/2/9"}, {"measurement": "effect on the assay, in words", "setting": "hMMP13", "result": "inhibited"}, {"measurement": "effect on the assay, in words", "setting": "gLTB4", "result": "inhibited"}]}, {"compound": "Cn1c(=O)c2[nH]cnc2n(C)c1=O", "note": "[theophylline]", "values": [{"measurement": "effect on the adenosine receptor binding assays, in words", "setting": "adenosine receptors", "result": "inhibited; also recorded: relatively selective effect"}, {"measurement": "effect on the assay, in words", "setting": "hAdo1", "result": "inhibited"}, {"measurement": "effect on the assay, in words", "setting": "[1]", "result": "inhibited"}]}, {"compound": "O=C1NC(=O)C(c2ccccc2)(c2ccccc2)N1", "note": "[5,5-diphenylhydantoin, reference compound]", "values": [{"measurement": "AC50 at the lowest concentration tested (LCT)", "setting": "hPXR", "result": "NR_hPXR"}]}, {"compound": "OC[C@@H](O)[C@H]1OC[C@H](O)[C@H]1O", "note": "[sorbitan]", "values": [{"measurement": "AC50 at the lowest concentration tested (LCT)", "setting": "hPXR", "result": "NR_hPXR"}]}, {"compound": "sodium hexyldecyl sulfate", "values": [{"measurement": "AC50 at the lowest concentration tested (LCT)", "setting": "hPXR; [2]", "result": "NR_hPXR"}]}, {"compound": "CC(C)N(C(=O)COc1nnc(C(F)(F)F)s1)c1ccc(F)cc1", "note": "[flufenacet]", "values": [{"measurement": "AC50 at the lowest concentration tested (LCT)", "setting": "rPBR", "result": "MP_rPBR"}, {"measurement": "AC50 at the lowest concentration tested (LCT)", "setting": "hPXR; [2]", "result": "NR_hPXR"}]}]}
